Results: patent US20080221074A1, “Drug Screen and Treatment Method” (priority 2006, published 2008)

Tests used:
[1] = system: carrageenan-λ induced pleurisy; test: carrageenan-λ induced lung (pleural cavity) inflammation; format: in vivo, CD1 male mice; conditions: for number of neutrophils relative to negative control group (set at 100%): exudate 4 h after
Description: Treatment of lung inflammation. Three compounds, 3β,16α-dihydroxy-17-oxoandrostane, 3α,16β,17β-trihydroxyandrostane and 3α,16α,17α-trihydroxyandrostane were used to treat inflammation in mice essentially as described (D. Auci et al., Ann. New York Acad. Sci. 1051:730-742 2005). Five to 8 week old CD1 male mice (Charles River, Calco, Italy) were used for the study. The animals were housed in a controlled environment and provided with standard rodent chow and water. Animal care was in compliance with applicable regulations on protection of animals. Mice were allocated into one of the following groups: (1) mice treated with 2% carrageenan-k in saline (carrageenan-λ treated control group), (2) mice treated with 0.1 mg, 0.01 mg or 0.001 mg 3β,16α-dihydroxy-17-oxoandrostane by subcutaneous (s.c.) injection 24 h and 1 h before carrageenan-λ administration, (3) mice treated with 0.1 mg, 0.01 mg or 0.001 mg of 3α,16α,17α-trihydroxyandrostane by s.c. injection 24 and 1 h before carrageenan; (4) mice treated with 0.1 mg, 0.01 mg or 0.001 mg […],16β,17β-trihydroxyandrostane by s.c. injection 24 h and 1 h before carrageenan-λ administration; (5) mice treated with vehicle (0.1% carboxymethylcellulose, 0.9% saline, 2% tween 80, 0.05% phenol) s.c. 24 h and 1 h before carrageenan-λ administration; (6) mice treated with rabbit anti-mouse polyclonal anti-TNF-α antibody (200 μg) given as an intraperitoneal bolus 24 h and 1 h before carrageenan-λ administration (positive control group); and (7) sham-operated mice that were not treated with carrageenan-λ. Each group consisted of 10 mice. All treatments were given in a final volume of 100 μL. Lung (pleural cavity) inflammation was induced as follows. The mice were anaesthetised with isoflurane and a skin incision was made at the level of the left sixth intercostal space. The underlying muscle was dissected and either 0.1 mL saline (control) or 0.1 mL saline containing 2% λ-carrageenan was injected into the pleural cavity. The carrageenan-λ is a potent inducer of inflammation, which is manifested in this protocol by accumulation of fluid and neutrophils in the pleural cavity. The incision was closed with a suture and the animals were allowed to recover.
At 4 h after the injection of carrageenan-λ, the animals were euthanized by exposure to CO2. The chest was carefully opened and the pleural cavity rinsed with 1 mL of saline solution containing heparin (5 U/mL) and indomethacin (10 μg/mL). The exudate and washing solution were removed by aspiration and the total volume measured. Any exudate contaminated with blood was discarded. The amount of exudate was calculated by subtracting the injected 1 mL volume from the total pleural cavity volume that was recovered. The neutrophils in the exudate were suspended in phosphate-buffer saline and counted with an optical microscope in a Burker's chamber after Trypan Blue staining. The results were analysed by one-way ANOVA followed by a Bonferroni post-hoc test for multiple comparisons. A p-value less than 0.05 was considered significant. For statistical analysis each group was compared to the control group of mice that were challenged with carrageenan-k and received no other treatment.
The table below describes the number of neutrophils from the treated animal groups relative to untreated control animals that were exposed to carrageenan-λ, but not treated with anything else (negative control group). The neutrophil number for the negative control group was set at 100% and other groups were compared to this.

NF-κB = test: inhibition of NF-κB activation in NF-κB-bla THP-1 cells after LPS stimulation; format: cell-based, human; conditions: Homo sapiens, THP-1
Description: Inhibition of NF-κB in vitro. […] Activation of NF-κB increases expression of a number of genes that mediate inflammation. This protocol used human THP-1 cells, which are human mononuclear blood cells with a monocyte phenotype. The cell line, referred to as NF-κB-bla THP-1, contained a β-lactamase reporter gene under the control of the NF-kB response element (Invitrogen, CellSensor™, product No. K1176). In this cell line, the β-lactamase reporter gene is stably integrated in the THP-1 cells. This cell line was used to detect agonists or antagonists of the NF-κB signaling pathway. These NF-κB-bla THP-1 cells respond to the presence of tumor necrosis factor alpha (TNFα) or bacterial lipopolysaccharide (LPS) by increased expression of the β-lactamase reporter gene. The level of β-lactamase enzyme activity was measured by fluorescence resonance energy transfer ratiometric detection. TNFα and LPS are both potent inflammation-inducing agents that activate NF-κB in THP1 cells. In this assay, compounds that decrease NF-κB activity, and thus β-lactamase, in the presence of TNFα or LPS are exerting an anti-inflammation activity.
The NF-κB-bla THP-1 cells were maintained by passaging or feeding as needed. […] The cells were plated at 20,000 cells/well in a 384-well Black-wall, clear bottom assay plates (Costar#3712-TC low fluorescence background plates) approximately 24 hours before adding either TNFα at 10 ng/mL or LPS at 0.2 ng/mL to activate NF-κB.
The assays were usually conducted 2-4 times for each compound and the values shown below are averages for each compound.

[2] = metabolic stability in liver microsomes, species not stated; conditions: compared with androst-5-ene-3β,17β-diol
Method: The protocol was performed as follows. […] (2) Set up samples as follows. […] (4) The internal standard/acetonitrile solution.

EAE = test: experimental allergic encephalomyelitis (EAE), PLP 139-151; format: in vivo, female SJL/J mice; conditions: 5 mg/kg daily oral gavage; through day 26
Description: Treatment of autoimmune neurodegeneration. Three compounds, 17β-aminoandrost-5-ene-3β-ol, 17β-dimethylaminoandrost-5-ene-3β-ol and 17β-methylaminoandrost-5-ene-3β-ol were characterized for their capacity to ameliorate experimental allergic encephalomyelitis (EAE) in mice. This demyelinating condition is extensively used as a model for multiple sclerosis in humans and for testing of new therapies for treating multiple sclerosis, e.g., B. F. Bebo Jr. et al., J. Neurosci. Res. 52:420-426 1998; R. R. Voskuhl et al., Neuroscientist, 7:258-270 2001; H. Offner et al., J. Neuroimmunol., 130:128-139 2002.
In this protocol, the compounds were administered to female SJL/J mice by oral gavage at the onset of disease symptoms. An antigen was used to initiate the EAE condition in the mice. […] Immunization with this peptide antigen initiates an autoimmune Thl mediated demyelinating disease of the central nervous system. The antigen was prepared by solid phase synthesis and purified by high-performance liquid chromatography. […] The immunization protocol was subcutaneous injection over four sites on the hind flank on day 0. After immunization. the mice were assessed daily for clinical signs of EAE using the following scale: 0=no clinical signs or symptoms; 1=limp tail; 2=mild hind limb weakness and limp tail; 3=moderate hind limb weakness and limp tail or mild ataxia; 4=severe hind limb weakness and mild forearm weakness with moderate ataxia; 5=paraplegia with no more than moderate forelimb weakness; 6=paraplegia with severe forelimb weakness or severe ataxia or moribund condition.
Mice in the vehicle control group began to show observable symptoms of EAE at about 10-11 days after immunization with the PLP antigen, which is typical for the EAE disease model. The animals were dosed daily with 17β-aminoandrost-5-ene-3β-ol, 17β-dimethylaminoandrost-5-ene-3β-ol or 17β-methylaminoandrost-5-ene-3β-ol by oral gavage beginning at day 1, which was 1 day after immunization.

[3] = system: human T lymphocytes (PBMC); test: human mixed lymphocyte reaction (MLR); format: cell-based; conditions: 300 nM
Description: Human mixed lymphocyte reaction (MLR). The capacity of 3β,16α-dihydroxy-17-oxoandrostane, 3β,17β-dihydroxy-16-oxoandrostane, 17α-ethynylandrost-5-ene-3β,7β,17β-triol, and 17β-aminoandrost-5-ene-3β-ol to affect antigen specific stimulation in which human T lymphocytes respond to a specific foreign antigen (major histocompatibility complex).
Blood samples were obtained from 3 (2 males, […]) fasting, healthy human volunteers of 23-31 years old. […] The subjects were bled between 9 and 10 AM to limit possible fluctuations in the circulating levels of hormones or cytokines that could have influenced the in vitro responses of their lymphocytes. Peripheral blood mononuclear cells (PBMC) were isolated by centrifugation on Ficoll-Hypaque (density 1.077, Biochrom AG, Berlin, Germany) gradients and resuspended in culture medium (RPMI 1640 supplemented with 2 mM L-glutamine, penicillin (100 U/mL) and streptomycin ([…]) (Invitrogen s.rl., Milan, Italy). Autologous (responder) inactivated plasma was used at 10%. Five hundred thousand responder PBMC (PBMCr) and 500,000 allogeneic irradiated (30 Gy) stimulator PBMC (PBMCs) were mixed at a ratio of 1:1 in 200 μL medium and cultured for 6 days in flat bottom 96 well plates (Nunc, Roskilde, Denmark) at a concentration of 300 nM or 30 nM for each of the 4 compounds. The compounds were dissolved in ethanol and then diluted to the desired concentration with culture medium leading to a final solution containing 0.01% of ethanol. This vehicle was used as control. Controls also included PBMCr and PBMCs cultured separately. During the last 8 hours of the culture period the PBMC were pulsed with […] [^3H] thymidine (Amersham, Milan, Italy). The cells were then harvested and radioactivity incorporation measured with a beta cell counter. The mean cpm of quadruplicate wells was calculated. Proliferation of T cells was expressed as a stimulation index: SI=cpm (PMBCs xPBMCr)/cpm (PBMCr)+cpm (PBMCs). Statistical analysis was performed using the Student's t test. The cpm obtained from quadruplicate of each test compound were compared to proliferative responses obtained in control PBMCr and PBMCs cultured in the presence of the vehicle. Differences were considered significant at p<0.05.

[4] = system: ionizing radiation exposure; test: survival after lethal total body irradiation (10 Gy); format: in vivo, female B6D2F1 mice; conditions: 0.6 mg s.c. daily for 3 days
Method: Treatment of ionizing radiation exposure. The effect of selected F1Cs on survival of lethally-irradiated female B6D2F1 mice were compared to control animals treated with vehicle alone. […] For Group 4, test article was administered as a 50 μL volume, by intramuscular injection for three consecutive days. The formulation was a a suspension containing 0.1% w/v carboxymethyl-cellulose, 0.9% w/v sodium chloride and 0.05% v/v phenol. The formulations were agitated to uniformly resuspend the Fl C before syringing, and injected into animals within a few minutes of drawing into the syringe to prevent settling in the syringe.
The groups of animals were treated as follows. […] The number of surviving animals is shown for day 6, 7, 12 and 21.

For C[C@]12CC[C@H]3[C@@H](CCC4C[C@H](O)CC[C@@]43C)[C@@H]1C[C@@H](O)[C@H]2O (stereo partly drawn) [3α,16α,17α-trihydroxyandrostane], the “number of neutrophils relative to negative control group (set at 100%)” value ([1]; 0.01 mg s.c. 24 h and 1 h before carrageenan-λ) was 45%, the “number of neutrophils relative to negative control group (set at 100%)” value ([1]; 0.1 mg s.c. 24 h and 1 h before carrageenan-λ) was 30% and the IC50 (NF-κB) was over 10 µM. The “rate of metabolism by microsomes” value [2] was “metabolized by microsomes at a rate similar to the androst-5-ene-3β,17β-diol reference compound”.
In the case of C[C@]12CC[C@H]3[C@@H](CC=C4C[C@@H](O)CC[C@@]43C)[C@@H]1CC[C@@H]2N [17β-aminoandrost-5-ene-3β-ol], the “anti-inflammation activity compared to vehicle controls” value ([1]; oral gavage, 1 mg and 0.1 mg (17α-ethynyl triol), 40 mg/kg (17β-amino compound)) is reported as “statistically significant anti-inflammation activity”, the “clinical severity of EAE symptoms” value (EAE) is reported as “reduced the clinical severity” and the “immune suppression (inhibition of the MLR)” value [3] is reported as “moderately immune suppressive”. For the same compound, the “number of surviving animals (groups of 12)” value (shortened to “number of surviving animals”) ([4]; day 6) was 12, the “number of surviving animals” value ([4]; day 7) was 12 and the “number of surviving animals” value ([4]; day 12) was 12. For the same compound, the “number of surviving animals” value ([4]; day 21) was 11.
For C[C@]12CC[C@H]3[C@@H](CC=C4C[C@@H](O)CC[C@@]43C)[C@@H]1C[C@@H](O)[C@@H]2O [androst-5-ene-3β,16α,17β-triol], the “rate of metabolism by microsomes” value [2] was “metabolized by microsomes at a rate similar to the androst-5-ene-3β,17β-diol reference compound”.
